Patent US20060167021A1, “Inhibition of src for treatment of reperfusion injury related to revascularization” (Caritas St. Elizabeth's Medical Center of Boston, Inc., priority 2002, published 2006)
Values joined by “and” are separate entries in the source; they are usually repeats but may differ in a detail not shown here. Equal entries are not always repeated.

What was measured:
[1] = test system: Sprague-Dawley rats; test: Echocardiography 4 weeks post-MI; assay type: in vivo, rat
Description: (§1) In-vivo water content was evaluated using MRI performed serially on anesthetized rats 24 hours following MI using a 4.7-T MR scanner (Bruker Billerica Mass.). […] MRI experiments to quantify T2 values of the myocardium were conducted by applying an ECG and respiratory-triggered multiecho spin echo sequence (number of echoes, 8; echo time, 6.6 ms; slice thickness, 1.0 mm; inplane resolution, 430 μm^2; total slices, 6-7). The trigger delay was chosen to capture all echoes during full diastole to avoid motion artifact between echoes. Corresponding gradient echo images were also acquired for each slice to clearly delineate the blood/myocardium border for region of interest evaluation of the spin echo sequence. Because of their increased water content, edematous regions are expected to have a longer T2 relaxation than nonedematous regions. Regions with T2>40 ms (two standard deviations above the mean of normally perfused myocardium) were delineated and the volume calculated as a percentage of the total LV myocardial volume. In addition, ex-vivo myocardial water content of proximal heart sections was measured as the percentage difference between initial wet and dry weights after 24 hours incubation at 80° C. Transthoracic echocardiography (SONOS 5500, Agilent Technologies, Palo Alto, Calif.) was performed to evaluate LV function before (baseline) and 4 weeks after MI. For this analysis, rats were anesthetized with 0.6 ml/kg ketamine intraperitoneally.
MI was induced in rats as described above. […] Tests were performed 24 hours post-MI induction. Four weeks post-MI, fraction shortening was assessed by echocardiography.

[2] = test system: Sprague-Dawley rats; test: Rat ischemia/reperfusion model (echocardiography, Evan's blue & TTC staining at 24 hours); assay type: in vivo; set-up: LVDd / LVDs / AAR: unit not given beside the values
Description: (§2) After 24 hours, 10% Evans blue (Sigma, St. Louis, Mo.) was injected intravenously before sacrifice. Hearts were removed and cut in three equivalent sections distal to the occluding LAD suture and one proximal. The distal sections were digitized to evaluate the nonperfused area at risk using NIH Image software. Sections were stained with 2% triphenyltetrazolium chloride ([…]) (Sigma, St. Louis, Mo.) to delineate ischemic area. Infarct size is presented as the percentage of area at risk to eliminate variability. For example, the area at risk (AAR) is measured as a function of (white+red area)/(blue+white+red area); the % infarct is measured as a function of (white area (% of LV area))/(blue+white+red area); and the % infarct/AAR is calculated as a function of (white area (% of AAR))/(white+red area).
as §1
To establish whether Src inhibition is beneficial following transient ischemia, rats were subjected to occlusion followed by reperfusion, and then evaluated for ventricular function and infarct size after 24 hours. […] Subjects were evaluated with echocardiography (FIGS. 13 and 18) and TTC staining (FIGS. 14 and 18) 24 hours after occlusion (Table 7).

[3] = test system: Flk-cadherin-catenin complex; test: In vivo permeability model: immunoprecipitation/immunoblotting after VEGF injection; conditions: mice pretreated before VEGF injection; FIG. 20D
Description: At the appropriate time, the heart was rapidly excised and homogenized in 3 ml RIPA lysis buffer as previously described (Eliceiri et al. Mol. Cell 4: 915-924 (1999)) and the protein concentration measured (BCA Protein Assay; Pierce, Rockford, Ill.).
Tissue lysates were prepared for immunoprecipitation and immunoblotting as previously described (Eliceiri et al. Mol. Cell 4: 915-924 (1999)) with antibodies from Santa Cruz Biotechnology (Santa Cruz, Calif.): Flk (sc315), VE-cadherin (sc6458), β-catenin (sc7963), and P-Tyrosine (sc7020 or sc508). Representative data from at least three separate experiments is shown.
(Data is representative of at least three experiments.)
Heart lysates prepared from animals injected with or without VEGF were subjected to immunoprecipitation with anti-Flk followed by immunoblotting for VE-cadherin and β-catenin. In control mice, a pre-existing complex between Flk, β-catenin, and VE-cadherin in blood vessels was observed. This complex was rapidly disrupted within 2-5 minutes following VEGF stimulation, and had reassembled by 15 minutes in blood vessels in vivo. The timescale of complex dissociation completely paralleled that of Flk, β-catenin, and VE-cadherin phosphorylation and the dissociation of β-catenin from VE-cadherin.

[4] = test system: 2-year-old C57 black mice; test: Survival after MI in 2-year-old mice
Description: 2-year-old C57/ByJ mice were used as a model of severe MI to test the effects of Src inhibition on survival. […] Adult male Sprague-Dawley rats (Harlan, Indianapolis, Ind.) and C57/ByJ mice (Jackson Laboratory, Bar Harbor, Me.) were maintained under approved protocols.
MI was induced in mice. […] Survival rates were assessed.
To evaluate survival after MI, 2-year-old C57 black mice were used as a model characterized by considerable mortality (>40%) after LAD ligation.

[5] = test system: Sprague-Dawley rats; test: Ex-vivo myocardial water content (wet/dry weights); assay type: in vivo, rat
Description: as §1
Rats were treated with 0.5 mg/kg, 1.5 mg/kg, or a placebo post-MI induction and the myocardial water content was compared.

[6] = test system: Sprague-Dawley rats; test: Rat acute MI model (permanent LAD ligation), infarct size by Evans blue/TTC; assay type: in vivo
Description: (§3) Generally, myocardial Infarction (MI) was induced by ligating the left anterior descending (LAD) coronary artery in Sprague-Dawley rats or in C57 black mice. Intraperitoneal injections of the inhibitors were delivered after the induction of infarction. High resolution magnetic resonance imaging (MRI), dry weight measurements, infarct size, heart volume and area at risk were determined 24 hours after induction of MI. Survival rates and echocardiography were determined at 4 weeks post-MI.
as §2
Essentially, MI was induced in rats as described above. […] Control rats were mock-treated with the dimethylsulfoxide (DMSO) vehicle. Tests were performed 24 hours post-MI induction.
To study the kinetics of this response, PP1 was administered at various times following occlusion. Essentially, MI was induced in rats as described above. […] Control rats were mock-treated with the dimethylsulfoxide (DMSO) vehicle. Tests were performed 24 hours post-MI induction.

[7] = test system: C57 black mice; test: Mouse MI model (permanent occlusion), infarct size; assay type: in vivo
Description: as §3, §2

[8] = test system: Sprague-Dawley rats; test: In-vivo MRI T2 mapping of edematous myocardium; set-up: species or system rat
Description: Because of their increased water content edematous regions are expected to have a longer 72 relaxation than nonedematous regions. As a result, T2 maps of the myocardium can be used as an index of water content. Regions with T2>40 ms (two standard deviations above normally perfused myocardium) were delineated as an index of edema.
Because of their increased water content, edematous regions are expected to have a longer T2 relaxation than nonedematous regions and therefore T2 maps of the myocardium can be used as an index of water content. Regions with T2>40 ms (two standard deviations above normally perfused myocardium) were delineated as an index of edema.

[9] = test system: mouse cardiac tissue; test: Ultrastructural analysis of cardiac tissue by electron microscopy after MI; assay type: in vivo; conditions: 1.5 mg/kg 45 minutes following occlusion
Description: Cardiac tissue was prepared from mice following VEGF injection or 3-24 hours following ischemia and the infarct, the peri-infarct, and remote regions were sectioned. Tissue was fixed in 0.1 M sodium cacodylate buffer (pH 7.3) containing 4% paraformaldehyde+1.5% glutaraldehyde for 2 hours, transferred to 5% glutaraldehyde overnight, then 1% osmium tetroxide for 1 hour. Blocks were washed, dehydrated, cleared in propylene oxide, infiltrated with Epon/Araldite, and embedded in resin. Ultrathin sections were stained with uranyl acetate and lead citrate, and viewed using a Philips CM-100 transmission electron microscope.

[10] = test system: mice; conditions: mouse, in vivo; cited from earlier work
[11] = test system: VEGF; test: Immunohistochemistry for VEGF in hearts 24 hours after MI; assay type: in vivo, rat; conditions: 24 hours after induction of MI; FIGS. 2A and 2B
Description: FIGS. 2A and 2B show the results of an immunohistochemistry assay for VEGF on rat heart samples 24 hours after induction of myocardial infarction, with VEGF+ and ischemic regions indicated.

[12] = test system: CML cells; conditions: cited from earlier work
[13] = test system: Src family kinases Lyn and/or Hck; conditions: cited from earlier work
[14] = individual rat, 1.5 mg/kg i.p., 24 hours after occlusion, 1.5 mg/kg
[15] = individual rat, Table 8, listed as Src-I
[16] = individual rat, Table 8, MRI, listed as Src-I

With Cc1ccc(-c2nn(C(C)(C)C)c3ncnc(N)c23)cc1 [PP1] the “fractional shortening assessed by echocardiography” value ([1]; 4 weeks post-MI, 1.5 mg/kg i.p., FIG. 11) was 33.7%, the “favorable effect on regional wall motion” value ([1]; over 4 weeks, n=8) was 9% and the “favorable effect on systolic LV diameter” value ([1]; over 4 weeks, n=8) was 16%. For the same compound, the “preservation of diastolic left ventricular diameter compared with untreated rats” value ([1]; over 4 weeks, n=8) was 11%, the “preservation of fractional shortening compared with untreated rats” value ([1]; over 4 weeks, n=8 each group) was 46% and the “% FS (echocardiography), group mean” value ([2]; 1.5 mg/kg i.p., n=4, 24 hours) was 30.6±3.16%. The “% infarct/AAR, group mean” value ([2]; 1.5 mg/kg i.p., n=4, 24 hours) was 42.4±3.72 % of AAR, the “Area at risk, group mean” value ([2]; 1.5 mg/kg i.p., n=4, 24 hours) was 36.1±9.61 and the “RWMS (echocardiography), group mean” value ([2]; 1.5 mg/kg i.p., n=4, 24 hours) was 18.5±0.58. The “reduction in infarct size following ischemia-reperfusion” value ([2]; FIG. 14) was 18%, the “% FS” value [2, 14] was 34.9% and 28.7% and 27.8% and 30.9% and the AAR [2, 14] was 32.9 and 27.2 and 34.4 and 49.7. For the same compound, the IA/AAR [2, 14] was 42.1 and 42.4 and 47 and 37.9, the LVDd [2, 14] was 0.729 and 0.737 and 0.877 and 0.797 and the LVDs [2, 14] was 0.475 and 0.525 and 0.633 and 0.551. The RWMS [2, 14] was 18 (2×) and 19 (2×), the “Flk-cadherin-catenin complex after VEGF injection” value [3] was “remains intact” and the “survival within the first 4 weeks” value ([4]; 1.5 mg/kg 45 minutes post-MI, n=12 each group) was 91.7%. The four-week survival rate ([4]; 1.5 mg/kg, FIG. 10) was 100%, the “decreased myocardial water content” value ([5]; permanent MI, FIG. 8) was 5%+/−1.3 and the “maximum inhibition in infarct size” value ([6]; 1.5 mg/kg i.p. 45 minutes after MI induction, 24 hours post-MI, FIG. 5) was 68%. The “cardiac tissue 24 hours after induction of MI” value ([6]; FIG. 1A vs 1B) was “cardioprotection”, the “smaller infarct size (maximum benefit)” value ([6]; additional experiments, administration 45 minutes following occlusion, FIG. 17) was 50% and the “edema and infarct size, dose dependence” value ([6]; additional experiments, maximum decrease at 1.5 mg/kg, FIGS. 15 and 16) was “dose-dependent decreases in edema and infarct size”. The “protection (infarct size)” value ([6]; additional experiments, treatment after 6 hours, FIG. 17) was 25%, the “decrease in infarct size” value ([6]; given six hours after LAD ligation, FIG. 7) was 42% and the “decrease in infarct size following permanent occlusion” value ([6]; permanent occlusion, quoted for comparison with ischemia-reperfusion) was 50%. The “infarct size following permanent occlusion” value ([6]; rat) was “significant reduction of infarct size”, the “infarct size following permanent occlusion” value [7] was “significant reduction of infarct size” and the “LV volumes with T2>40 ms versus vehicle treated rats” value ([8]; 24 hours following permanent LAD occlusion, n=2, FIGS. 22A and 22B) was “a difference between LV volumes with T2>40 ms”. For the same compound, the “vascular gaps (ultrastructure)” value [9] was “did prevent vascular gaps”, the “Cardiac Damage (observations counted)” value ([9]; 3 hr MI) was 2 and the “EC Injury (observations counted)” value ([9]; 3 hr MI) was 14. For the same compound, the “Platelet Activation & Adhesion (observations counted)” value ([9]; 3 hr MI) was 11, the “EC Barrier Dysfunction (observations counted)” value ([9]; 3 hr MI, approximately 250 microvessels) was 2 and the “Cardiac Damage (observations counted)” value ([9]; 24 hr MI) was 9. The “EC Barrier Dysfunction (observations counted)” value ([9]; 24 hr MI) was 0, the “EC Injury (observations counted)” value ([9]; 24 hr MI) was 15 and the “Platelet Activation & Adhesion (observations counted)” value ([9]; 24 hr MI) was 1. For the same compound, the “myocyte injury (ultrastructure)” value ([9]; at 24 hours) was “significant reduction in myocyte injury”, the “ischemia and brain damage after stroke” value [10] was “reduce ischemia and brain damage after stroke” and the “VEGF expression in the ischemic tissues” value [11] was “did not interfere with VEGF expression”.
With COc1cc(Nc2c(C#N)cnc3cc(OCCCN4CCN(C)CC4)c(OC)cc23)c(Cl)cc1Cl [SKI-606] the “decrease in infarct size in the ischemia-reperfusion model” value ([2]; 5 mg/kg, FIG. 19) was 43%, the “% infarct/AAR, group mean” value ([2]; SKI-606 study, Example 9) was 54.8±2.45 % of AAR and the “Area at risk, group mean” value ([2]; SKI-606 study, Example 9) was 37.9±2.76. The “RWMS (echocardiography), group mean” value ([2]; SKI-606 study, Example 9) was 21.3±1.25, the “fractional shortening and regional wall motion score” value ([2]; after 24 hours, n=7 each group) was “favorably impacted fractional shortening and regional wall motion score” and the “% FS” value [2, 15] was 21.6%. The AAR [2, 15] was 38.6 and 35.2 and 36.7 and 42.3 and 36.5, the Dd [2, 15] was 0.873 and 0.881 and 0.703 and 0.805 and 0.865 and 0.669 and 0.89 and the Ds [2, 15] was 0.661 and 0.669 (3×) and 0.619 and 0.678 and 0.513. The IA/AAR [2, 15] was 58.6 and 55.5 and 54.5 and 52.4 and 53, the “RW MS” value [2, 15] was 20 (2×) and 21 (3×) and 23 (2×) and the “antiproliferative activity against CML cells in culture” value [12] was “potent antiproliferative activity”. For the same compound, the “Water Content, group mean” value ([5]; SKI-606 study, Example 9) was 76.7±2.01, the “% water” value [5, 15] was 78% and 74.4% and 74.1% and 79.1% and 78.7% and 76.6% and 75.8% and the “phosphorylation of the autoactivation site of Lyn and/or Hck” value [13] was “reduces phosphorylation”. The “MRI % T2>35, group mean” value ([8]; SKI-606 study, Example 9) was 18.4±8.85%, the “(%) T2 > 35” value [8, 16] was 27.518% and 13.699% and 13.287% and 28.257% and 9.198% and the “(%) T2 > 40” value [8, 16] was 17.955% and 5.743% and 7.537% and 19.466% and 5.719%. The “T2 > 40” value ([8]; individual rat, Table 9 summary, listed as Src-I) was 19.466 and 5.719 and 17.955 and 5.743 and 7.537.
